In ChEMBL document CHEMBL4507265 (2021):

Tests used:
[1] = system: eIF-2-alpha kinase GCN2 (Homo sapiens), Q9P2K8 [S808G]; details: Compound concentration 1000.0 nM
[2] = biological target: Dual specificity mitogen-activated protein kinase kinase 1 (Homo sapiens) (UniProt Q02750); details: Compound concentration 1000.0 nM
[3] = biological target: Serine/threonine-protein kinase ICK (Homo sapiens) (UniProt Q9UPZ9); details: Compound concentration 1000.0 nM
[4] = system: Tyrosine-protein kinase ABL1 (Homo sapiens), P00519 [H396P]; details: Compound concentration 1000.0 nM
[5] = biological target: Serine/threonine-protein kinase 32B (Homo sapiens) (UniProt Q9NY57); details: Compound concentration 1000.0 nM
[6] = biological target: Tyrosine-protein kinase Lck (Homo sapiens) (UniProt P06239); details: Compound concentration 1000.0 nM
[7] = biological target: Dual specificity mitogen-activated protein kinase kinase 3 (Homo sapiens) (UniProt P46734); details: Compound concentration 1000.0 nM
[8] = biological target: Interferon-induced, double-stranded RNA-activated protein kinase (Homo sapiens) (UniProt P19525); details: Compound concentration 1000.0 nM
[9] = biological target: Serine/threonine-protein kinase 10 (Homo sapiens) (UniProt O94804); details: Compound concentration 1000.0 nM
[10] = biological target: T1, 5-hydroxytryptamine receptor 1A (Homo sapiens) (UniProt P08908); details: Compound concentration 10.0 uM
T1 sequence (whole entry): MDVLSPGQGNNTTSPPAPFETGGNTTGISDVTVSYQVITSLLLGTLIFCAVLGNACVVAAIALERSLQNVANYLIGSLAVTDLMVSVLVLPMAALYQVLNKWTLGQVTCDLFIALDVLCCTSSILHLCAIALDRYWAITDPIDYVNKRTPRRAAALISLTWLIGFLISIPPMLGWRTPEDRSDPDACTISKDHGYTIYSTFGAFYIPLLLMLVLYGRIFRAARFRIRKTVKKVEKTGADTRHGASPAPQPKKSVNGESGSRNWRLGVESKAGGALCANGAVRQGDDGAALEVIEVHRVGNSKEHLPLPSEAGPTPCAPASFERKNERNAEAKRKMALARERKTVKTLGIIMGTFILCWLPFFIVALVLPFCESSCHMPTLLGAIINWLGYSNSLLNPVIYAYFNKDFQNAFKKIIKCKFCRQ

[11] = system: Mast/stem cell growth factor receptor Kit (Homo sapiens), P10721 [V559D,T670I]; details: Compound concentration 1000.0 nM
Mast/stem cell growth factor receptor Kit (Homo sapiens), P10721 [V559D,T670I], sequence (P10721 whole entry V559D/T670I): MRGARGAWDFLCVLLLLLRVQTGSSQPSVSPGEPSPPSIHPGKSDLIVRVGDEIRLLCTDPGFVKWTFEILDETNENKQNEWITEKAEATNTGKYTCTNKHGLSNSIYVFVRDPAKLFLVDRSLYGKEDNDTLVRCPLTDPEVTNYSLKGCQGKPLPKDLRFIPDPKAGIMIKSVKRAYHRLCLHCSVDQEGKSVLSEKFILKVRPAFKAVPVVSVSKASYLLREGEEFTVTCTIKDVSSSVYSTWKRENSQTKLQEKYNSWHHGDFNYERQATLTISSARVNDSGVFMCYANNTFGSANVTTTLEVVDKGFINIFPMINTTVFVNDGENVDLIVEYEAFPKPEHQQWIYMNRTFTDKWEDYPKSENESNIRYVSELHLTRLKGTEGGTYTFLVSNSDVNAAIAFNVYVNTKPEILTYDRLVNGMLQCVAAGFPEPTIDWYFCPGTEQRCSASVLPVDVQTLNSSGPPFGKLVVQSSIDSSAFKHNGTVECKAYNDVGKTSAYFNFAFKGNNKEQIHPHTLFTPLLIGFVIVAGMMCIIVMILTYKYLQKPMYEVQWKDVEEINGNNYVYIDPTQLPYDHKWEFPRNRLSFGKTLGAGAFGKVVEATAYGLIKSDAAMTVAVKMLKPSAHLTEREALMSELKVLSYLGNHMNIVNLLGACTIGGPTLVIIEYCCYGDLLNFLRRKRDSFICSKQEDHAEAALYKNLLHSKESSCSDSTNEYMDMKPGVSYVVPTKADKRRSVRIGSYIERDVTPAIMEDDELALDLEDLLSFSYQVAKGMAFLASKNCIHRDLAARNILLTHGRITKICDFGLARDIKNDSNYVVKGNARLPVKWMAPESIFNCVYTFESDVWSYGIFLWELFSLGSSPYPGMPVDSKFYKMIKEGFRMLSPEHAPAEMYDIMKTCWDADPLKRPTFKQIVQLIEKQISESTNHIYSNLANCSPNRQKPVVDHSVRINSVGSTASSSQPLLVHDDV

[12] = biological target: T2, Alpha-1D adrenergic receptor (Homo sapiens) (UniProt P25100); details: Compound concentration 10.0 uM
T2 sequence (whole entry): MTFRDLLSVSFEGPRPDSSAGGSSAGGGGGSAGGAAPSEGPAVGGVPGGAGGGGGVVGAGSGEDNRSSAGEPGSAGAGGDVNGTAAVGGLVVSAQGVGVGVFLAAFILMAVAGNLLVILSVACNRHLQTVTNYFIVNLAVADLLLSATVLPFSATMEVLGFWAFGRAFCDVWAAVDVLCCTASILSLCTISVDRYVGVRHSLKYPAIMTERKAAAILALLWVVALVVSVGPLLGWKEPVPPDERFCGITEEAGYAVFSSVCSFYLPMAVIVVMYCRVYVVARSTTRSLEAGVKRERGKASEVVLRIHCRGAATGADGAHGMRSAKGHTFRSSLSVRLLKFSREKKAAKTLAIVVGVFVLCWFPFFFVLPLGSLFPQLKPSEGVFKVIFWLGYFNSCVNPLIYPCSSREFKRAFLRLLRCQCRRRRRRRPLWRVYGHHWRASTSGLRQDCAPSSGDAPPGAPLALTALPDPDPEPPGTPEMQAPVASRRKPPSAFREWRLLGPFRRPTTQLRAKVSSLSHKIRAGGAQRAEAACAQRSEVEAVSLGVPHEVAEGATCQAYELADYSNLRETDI

[13] = system: Receptor-type tyrosine-protein kinase FLT3 (Homo sapiens), P36888 [K663Q]; details: Compound concentration 1000.0 nM
[14] = biological target: BDNF/NT-3 growth factors receptor (Homo sapiens) (UniProt Q16620); details: Compound concentration 1000.0 nM
[15] = biological target: Tyrosine-protein kinase receptor Tie-1 (Homo sapiens) (UniProt P35590); details: Compound concentration 1000.0 nM
[16] = biological target: Myosin-IIIa (Homo sapiens) (UniProt Q8NEV4); details: Compound concentration 1000.0 nM
Myosin-IIIa (Homo sapiens), sequence (Q8NEV4 whole entry): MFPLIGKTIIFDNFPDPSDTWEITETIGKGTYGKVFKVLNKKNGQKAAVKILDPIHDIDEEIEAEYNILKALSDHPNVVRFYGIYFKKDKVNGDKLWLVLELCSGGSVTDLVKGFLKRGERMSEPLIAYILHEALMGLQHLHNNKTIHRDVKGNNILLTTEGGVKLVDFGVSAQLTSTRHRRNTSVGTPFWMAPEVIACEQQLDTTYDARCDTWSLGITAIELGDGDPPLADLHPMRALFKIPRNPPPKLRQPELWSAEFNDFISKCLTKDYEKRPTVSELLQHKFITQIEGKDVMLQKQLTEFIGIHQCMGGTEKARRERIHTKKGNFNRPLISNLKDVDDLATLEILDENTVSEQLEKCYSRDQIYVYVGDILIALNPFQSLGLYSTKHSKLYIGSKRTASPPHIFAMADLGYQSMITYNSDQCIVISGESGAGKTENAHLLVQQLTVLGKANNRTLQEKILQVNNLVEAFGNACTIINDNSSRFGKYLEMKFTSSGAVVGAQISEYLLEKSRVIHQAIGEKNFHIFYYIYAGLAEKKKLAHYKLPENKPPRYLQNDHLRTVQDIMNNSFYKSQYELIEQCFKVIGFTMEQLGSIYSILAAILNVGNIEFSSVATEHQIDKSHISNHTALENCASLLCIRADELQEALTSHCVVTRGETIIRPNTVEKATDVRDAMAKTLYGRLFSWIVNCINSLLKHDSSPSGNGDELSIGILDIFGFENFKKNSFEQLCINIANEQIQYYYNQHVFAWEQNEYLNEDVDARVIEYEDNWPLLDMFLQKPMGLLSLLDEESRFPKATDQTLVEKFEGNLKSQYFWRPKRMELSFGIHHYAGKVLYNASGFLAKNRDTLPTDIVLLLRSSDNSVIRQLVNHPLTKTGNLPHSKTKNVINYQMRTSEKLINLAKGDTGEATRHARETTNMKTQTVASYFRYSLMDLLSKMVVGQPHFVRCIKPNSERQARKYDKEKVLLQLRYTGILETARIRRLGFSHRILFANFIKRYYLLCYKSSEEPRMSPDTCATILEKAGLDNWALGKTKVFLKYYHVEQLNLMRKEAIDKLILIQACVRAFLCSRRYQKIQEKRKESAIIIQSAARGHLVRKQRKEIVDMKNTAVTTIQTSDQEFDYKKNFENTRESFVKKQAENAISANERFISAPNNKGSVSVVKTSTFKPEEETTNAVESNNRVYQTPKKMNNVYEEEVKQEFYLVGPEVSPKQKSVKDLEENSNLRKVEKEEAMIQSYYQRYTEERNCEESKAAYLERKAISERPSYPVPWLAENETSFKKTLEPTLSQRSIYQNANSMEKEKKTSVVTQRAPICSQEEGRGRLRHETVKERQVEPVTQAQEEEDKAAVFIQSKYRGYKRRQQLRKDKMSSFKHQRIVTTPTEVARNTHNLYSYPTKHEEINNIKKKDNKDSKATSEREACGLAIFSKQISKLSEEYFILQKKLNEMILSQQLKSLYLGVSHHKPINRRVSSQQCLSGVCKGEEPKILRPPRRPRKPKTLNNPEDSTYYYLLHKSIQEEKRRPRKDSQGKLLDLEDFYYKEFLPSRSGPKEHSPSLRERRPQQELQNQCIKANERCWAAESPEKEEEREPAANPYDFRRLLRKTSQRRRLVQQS

[17] = biological target: Angiopoietin-1 receptor (Homo sapiens) (UniProt Q02763); details: Compound concentration 1000.0 nM
Angiopoietin-1 receptor (Homo sapiens), sequence (Q02763 whole entry): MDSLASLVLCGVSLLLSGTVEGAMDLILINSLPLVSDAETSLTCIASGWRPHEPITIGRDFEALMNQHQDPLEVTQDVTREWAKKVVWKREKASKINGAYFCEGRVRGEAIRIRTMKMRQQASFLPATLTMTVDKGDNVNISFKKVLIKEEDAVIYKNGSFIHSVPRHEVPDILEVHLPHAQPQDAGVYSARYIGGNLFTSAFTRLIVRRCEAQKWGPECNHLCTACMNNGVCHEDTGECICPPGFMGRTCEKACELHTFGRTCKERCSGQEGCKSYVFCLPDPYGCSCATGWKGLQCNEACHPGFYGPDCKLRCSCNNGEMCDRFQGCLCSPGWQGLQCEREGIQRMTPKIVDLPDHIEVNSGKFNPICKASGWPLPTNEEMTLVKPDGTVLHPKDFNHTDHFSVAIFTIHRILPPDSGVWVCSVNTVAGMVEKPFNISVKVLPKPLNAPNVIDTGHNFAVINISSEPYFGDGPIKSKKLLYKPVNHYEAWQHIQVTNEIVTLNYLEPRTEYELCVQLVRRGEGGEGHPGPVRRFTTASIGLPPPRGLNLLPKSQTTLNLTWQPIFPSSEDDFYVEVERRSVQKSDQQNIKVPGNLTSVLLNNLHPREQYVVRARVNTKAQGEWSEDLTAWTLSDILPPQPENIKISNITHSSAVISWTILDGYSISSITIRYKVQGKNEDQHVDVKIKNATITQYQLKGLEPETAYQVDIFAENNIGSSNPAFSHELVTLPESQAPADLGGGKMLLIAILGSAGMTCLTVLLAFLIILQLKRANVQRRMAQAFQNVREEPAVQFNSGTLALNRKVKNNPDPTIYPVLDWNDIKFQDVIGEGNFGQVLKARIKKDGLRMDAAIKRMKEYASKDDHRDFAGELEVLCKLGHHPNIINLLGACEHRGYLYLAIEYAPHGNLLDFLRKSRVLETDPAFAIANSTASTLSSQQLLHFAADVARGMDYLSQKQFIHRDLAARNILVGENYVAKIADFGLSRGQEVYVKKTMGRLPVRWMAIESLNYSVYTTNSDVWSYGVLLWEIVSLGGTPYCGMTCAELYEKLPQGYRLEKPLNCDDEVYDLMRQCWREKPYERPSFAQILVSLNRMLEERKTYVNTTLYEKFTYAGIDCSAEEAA

[18] = biological target: Protein kinase C delta type (Homo sapiens) (UniProt Q05655); details: Compound concentration 1000.0 nM
[19] = biological target: Mitogen-activated protein kinase 13 (Homo sapiens) (UniProt O15264); details: Compound concentration 1000.0 nM
[20] = biological target: Tyrosine-protein kinase Fes/Fps (Homo sapiens) (UniProt P07332); details: Compound concentration 1000.0 nM
Tyrosine-protein kinase Fes/Fps (Homo sapiens), sequence (P07332 whole entry): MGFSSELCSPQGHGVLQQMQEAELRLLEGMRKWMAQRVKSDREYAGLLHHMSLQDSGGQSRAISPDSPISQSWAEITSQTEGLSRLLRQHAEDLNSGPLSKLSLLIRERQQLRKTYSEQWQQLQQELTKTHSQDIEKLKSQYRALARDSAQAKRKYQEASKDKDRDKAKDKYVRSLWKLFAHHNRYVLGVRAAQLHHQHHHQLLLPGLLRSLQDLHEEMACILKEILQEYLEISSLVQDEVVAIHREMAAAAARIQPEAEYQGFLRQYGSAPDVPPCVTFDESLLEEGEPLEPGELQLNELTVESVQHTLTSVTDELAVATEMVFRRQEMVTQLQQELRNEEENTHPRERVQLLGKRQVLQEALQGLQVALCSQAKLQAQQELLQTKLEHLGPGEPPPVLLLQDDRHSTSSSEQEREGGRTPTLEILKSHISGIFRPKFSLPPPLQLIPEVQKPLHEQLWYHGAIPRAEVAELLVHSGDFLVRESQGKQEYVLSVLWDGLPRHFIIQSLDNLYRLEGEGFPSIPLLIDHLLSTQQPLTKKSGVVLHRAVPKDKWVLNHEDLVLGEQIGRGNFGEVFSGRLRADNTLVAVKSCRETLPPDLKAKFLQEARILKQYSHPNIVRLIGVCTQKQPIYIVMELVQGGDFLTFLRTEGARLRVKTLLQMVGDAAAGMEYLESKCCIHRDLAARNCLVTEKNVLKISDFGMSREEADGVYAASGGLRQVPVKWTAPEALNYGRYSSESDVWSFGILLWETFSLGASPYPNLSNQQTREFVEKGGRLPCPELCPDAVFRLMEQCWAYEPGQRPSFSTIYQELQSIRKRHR

[21] = biological target: Activin receptor type-2A (Homo sapiens) (UniProt P27037); details: Compound concentration 1000.0 nM
[22] = biological target: Mitogen-activated protein kinase kinase kinase 20 (Homo sapiens) (UniProt Q9NYL2); details: Compound concentration 1000.0 nM
[23] = biological target: Phosphatidylinositol 4,5-bisphosphate 3-kinase catalytic subunit gamma isoform (Homo sapiens) (UniProt P48736); details: Compound concentration 1000.0 nM
[24] = biological target: Casein kinase I isoform gamma-2 (Homo sapiens) (UniProt P78368); details: Compound concentration 1000.0 nM
[25] = biological target: Cyclin-G-associated kinase (Homo sapiens) (UniProt O14976); details: Compound concentration 1000.0 nM
[26] = biological target: Cyclin-dependent kinase 16 (Homo sapiens) (UniProt Q00536); details: Compound concentration 1000.0 nM
[27] = biological target: Mu-type opioid receptor (Homo sapiens) (UniProt P35372); details: Compound concentration 10.0 uM
[28] = biological target: GABA-A receptor; anion channel (Rattus norvegicus) (UniProt O09028+P15431+P18506+P18508+P19969+P20236+P23574+P23576+P28471+P28473+P30191+P62813+P63079+P63138+Q91ZM7+Q9ES14); details: Compound concentration 10.0 uM
[29] = biological target: Tyrosine-protein kinase CSK (Homo sapiens) (UniProt P41240); details: Compound concentration 1000.0 nM
[30] = biological target: Serine/threonine-protein kinase Chk2 (Homo sapiens) (UniProt O96017); details: Compound concentration 1000.0 nM

Dual specificity mitogen-activated protein kinase kinase 1 (Homo sapiens), sequence (Q02750 whole entry): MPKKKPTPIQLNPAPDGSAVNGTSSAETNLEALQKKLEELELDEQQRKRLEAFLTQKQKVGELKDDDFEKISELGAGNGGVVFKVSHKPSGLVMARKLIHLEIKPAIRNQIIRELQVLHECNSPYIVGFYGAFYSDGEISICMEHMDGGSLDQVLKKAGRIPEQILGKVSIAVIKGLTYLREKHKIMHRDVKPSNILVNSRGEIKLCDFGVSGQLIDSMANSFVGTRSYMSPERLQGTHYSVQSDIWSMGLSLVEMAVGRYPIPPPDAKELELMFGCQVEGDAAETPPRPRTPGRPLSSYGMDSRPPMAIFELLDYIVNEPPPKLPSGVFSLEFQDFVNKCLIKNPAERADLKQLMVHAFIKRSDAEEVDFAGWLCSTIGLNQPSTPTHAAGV

NS(=O)(=O)c1cc(NC(=O)C2(c3ccccc3Cl)CC2)ccc1Oc1cccc(Cl)c1 [BAY-207]
inactive: residual activity [1] 76% | residual activity [2] 88% | residual activity [3] 100% | residual activity [4] 81% | residual activity [5] 91% | residual activity [6] 80% | residual activity [7] 84% | residual activity [8] 100% | residual activity [9] 69% | inhibition [10] 4.89% | residual activity [11] 85% | inhibition [12] 6.88% | residual activity [13] 100% | residual activity [14] 100% | residual activity [15] 85% | residual activity [16] 93% | residual activity [17] 69% | residual activity [18] 89% | residual activity [19] 88% | residual activity [20] 64% | residual activity [21] 96% | residual activity [22] 99% | residual activity [23] 100% | residual activity [24] 82% | residual activity [25] 76% | residual activity [26] 100% | inhibition [27] 40.2% | inhibition [28] 3.19% | residual activity [29] 100% | residual activity [30] 100%

NS(=O)(=O)c1cc(NC(=O)Cc2ccccc2)ccc1Oc1cccc(Cl)c1 [BAY-1797]
inactive: residual activity [1] 100% | residual activity [2] 97% | residual activity [3] 100% | residual activity [4] 97% | residual activity [5] 100% | residual activity [6] 70% | residual activity [7] 83% | residual activity [8] 80% | residual activity [9] 65% | inhibition [10] -1.77% | residual activity [11] 83% | inhibition [12] 2.32% | residual activity [13] 99% | residual activity [14] 66% | residual activity [15] 100% | residual activity [16] 100% | residual activity [17] 90% | residual activity [18] 100% | residual activity [19] 100% | residual activity [20] 92% | residual activity [21] 95% | residual activity [22] 100% | residual activity [23] 77% | residual activity [24] 100% | residual activity [25] 99% | residual activity [26] 92% | inhibition [27] 19.3% | inhibition [28] 0.73% | residual activity [29] 100% | residual activity [30] 81%
